Laboratory results published in US20160237502A1, “MARKERS FOR LIPID METABOLISM” (priority 2014, published 2016).
Entries after “also recorded” stand apart in the source; their conditions may differ.

How the values were obtained:
[1] = system: alh-6 mutants; conditions: NAC treatment, previous study; cited from earlier work
[2] = system: alh-6 mutant worms; experiment: Fat content during fasting measured by Nile Red staining; assay type: in vivo, C. elegans; conditions: NAC-treated alh-6 mutant worms
Protocol: For starvation, synchronized L1 animals were added to nematode growth medium (NGM) plates seeded with indicated bacteria. After 2 days at 20° C., L4 animals were collected, washed with M9 buffer at least three times and then subjected to fasting in M9 liquid with shaking for indicated time before collection for further analysis. Starvation survival assay was performed as previous described (Artyukhin et al., Sci. Rep.; 3, 2777; 2013). […] After 24 h, synchronized L1 animals were resuspended in M9 at a concentration of two worms per microliter. Starvation culture was mixed by constant rocking. Every 2 days, a portion of animals was recovered on normal OP50-seeded NGM plates. Animals that resumed development were considered to be surviving.
Nile Red staining was performed as previously described (Pino, et al., J. Vis. Exp. 73; 2013). Briefly, animals of indicated genotypes were collected, fixed in 40% isopropanol at room temperature for 3 min and stained in 3 μg ml-1 Nile Red working solution in dark for 2 h. Worms were then washed with M9 for at least 30 min, mounted on slides and imaged under the green fluorescent protein channel of microscope Zeiss Axio Imager with Zen software package. Fluorescent density was measured using ImageJ software. Approximately ten animals from each experiment (n) were used to calculate the fluorescent density.

[3] = system: SKN-1; experiment: SKN-1 transcriptional activity reporter gst-4p::GFP activation in worms; assay type: in vivo, C. elegans

In the case of CC(=O)N[C@@H](CS)C(=O)O [NAC, N-acetylcysteine], the “shortened lifespan of alh-6 mutants” value [1] is listed as “completely abrogated the shortened lifespan”, the “fat mobilization in response to fasting” value [2] is listed as “still exhibited accelerated fat mobilization” and the “SKN-1 reporter activation induced by exposure to arsenite” value ([3]; gst-4p::GFP reporter, arsenite as inducer of oxidative stress, NAC treatment) is listed as “blocked the SKN-1 reporter activation; also recorded: inhibits arsenite (AS) induced SKN-1 reporter activation”. For the same compound, the “SKN-1 activation observed in fasted alh-6 mutants” value ([3]; gst-4p::GFP reporter, fasted alh-6 mutants, NAC treatment) was “no effect; also recorded: not activation when alh-6 mutants are fasted”.
For arsenite, the SKN-1 reporter activation ([3]; in vivo) was “SKN-1 reporter activation induced”.
